Patent US12344578B2, “Salt forms of bempedoic acid and methods for using the same” (Esperion Therapeutics, Inc., priority 2019, dated 2025)

Assay: Thermogravimetric analysis (TGA), weight loss on heating
Type: physicochemical
Procedure: Thermogravimetric analysis (TGA) data for the crystalline form of the compound of formula (V) were collected using a TA Discovery 550 TGA instrument. The TGA instrument was calibrated using a nickel reference standard. Samples of the crystalline form of the compound of formula (V) were placed in open platinum sample pans and heated at a rate of 10° C./minute from about ambient temperature (˜25° C.) to about 315° C.
TGA data were collected using a TA Discovery 550 TGA instrument. The TGA instrument was calibrated using a nickel reference standard. Samples were placed in open platinum sample pans and heated at a rate of 10° C./minute from about ambient temperature (˜25° C.) to about 315° C.

CC(C)(CCCCCC(O)CCCCCC(C)(C)C(=O)[O-])C(=O)[O-].[Ca+2] [Crystalline Form A of the calcium salt]
TGA weight loss (up to 62.8° C.): Negligible weight loss

CC(C)(CCCCCC(O)CCCCCC(C)(C)C(=O)O)C(=O)O [8-hydroxy-2,2,14,14-tetramethylpentadecanedioic acid]
TGA weight loss prior to decomposition (heated at 10° C./minute from ~25° C. to about 315° C.): negligible weight loss

CC(C)(CCCCCC(O)CCCCCC(C)(C)C(=O)[O-])C(=O)[O-].[Ca+2] [Crystalline Form B of the calcium salt]
TGA weight loss (up to 86.9° C.): 2.23%
